Reference: article PMC6915728 (Nature Communications, 2019)
Where two headings read alike, the source gives them in different places.

What was measured:
[1] = system: E. coli K12 BW25113 carrying the pooled ASKA overexpression plasmid library (~4400 ORFs); assay: Chemical-genetic profiling: pooled competitive growth of the ASKA gene-overexpression library with and without AMP, deep sequencing readout; format: cell-based, Escherichia coli
Text: We generated chemical-genetic interaction profiles for a diverse set of AMPs (Table 1) by screening them against a comprehensive library of gene overexpressions in E. coli[21]. Increasing gene dosage is a widely applied approach to reveal the targets of small-molecule antibiotics[22],[23]. It also informs on the ‘latent resistome’, that is, the collection of genes where a change from native expression level enhances resistance to a particular drug[24]. We applied a sensitive competition assay by monitoring growth of a pooled plasmid library, overexpressing all the E. coli ORFs (Fig. 1a), as we reported earlier. Specifically, E. coli cells carrying the pooled plasmid collection were grown in the presence or absence of one of the 15 AMPs tested, at a sub-inhibitory concentration that increased the doubling time of the whole population by 2-fold. Following 12 generations of growth, the plasmid pool was isolated from each selection and the relative abundance of each plasmid was determined by a deep sequencing readout (see Methods).
We carried out chemical-genetic profiling to determine the impact of the overexpression of each E. coli ORF on bacterial susceptibility to each of the 15 different AMPs. To this end, we used the complete set of E. coli K-12 Open Reading Frame Archive (ASKA) plasmid library (GFP minus) where each E. coli ORF is cloned into a high copy number expression plasmid (pCA24N-ORFGFP(-)). Prior to screening, the ASKA library was grown in the original host strain E. coli K-12 AG1 in 96-well plates (growth conditions: 37 °C, 280 rpm, LB medium). An equal aliquot of each member of the ASKA library (each well of the 96-well plates) was pooled together and the plasmid DNA (pCA24N-ORF-GFP(-)) was isolated and transformed into E. coli K12 BW25113 strain[51]. To obtain a negative control strain not having any overexpressed gene, the plasmid without a cloned ORF (pCA24N-noORF) was also transformed into the same E. coli strain. Then, on the pooled collection, we applied a previously reported competitive growth assay. Specifically, the pooled overexpression library and the control strain were grown in parallel in MS medium supplemented with 20 µg per ml chloramphenicol and the overexpression was induced by 100 µM isopropyl-ß-D-thiogalactopyranoside (IPTG). After 1 h induction, ~5 × 10^5 bacterial cells from the library were inoculated into each well of a 96-well microtiter plate containing a concentration gradient of an AMP in the MS medium supplemented with 20 µg per ml chloramphenicol and 100 µM IPTG. At the same time, both the library and the control strain with the empty plasmid were grown in the absence of any AMPs. We took special care to grow both of these samples in the exact same conditions as the samples in the presence of AMPs. Bacterial growth was monitored in a microplate reader (Biotek Synergy 2) for 24 h. At the end of the exponential growth phase, we selected those wells in which the doubling time of the cell population was increased by 2-fold. Then, from these wells, cells were split into four equal proportion and each was transferred into 20 mL of MS medium supplemented with the corresponding AMP in four different concentrations in the range that slowed down growth by two-fold in the microtitre plate. […] The rationale for this 2-step process was to maintain competition in exponential phase for 12 generations of growth, efficiently control the growth rate in a reproducible manner and obtain the plasmid pool with standard DNA isolation protocol (innuPREP plasmid mini Kit, Analytik Jena AG) in a yield that is enough for the downstream analysis. The cultures were vigorously shaken along the entire protocol to make sure that the cultures are completely homogeneous and therefore biasing interactions between clones (such as trans-resistance) was minimized. […]

[2] = system: E. coli gene overexpression; conditions: cited from earlier work
Text: Supplement 41467_2019_13618_MOESM1_ESM.docx, table 1: Supplementary Table 1. Collected examples of E. coli gene overexpression from the literature as a confirmation of our chemical-genetic screen results. | column: Overexpression phenotype

[3] = system: bacterial membrane; conditions: literature mining; ref superscript numbers in the cell, listed in Supplementary Data 7 sheet References; cited from earlier work
Text: Supplement 41467_2019_13618_MOESM10_ESM.xlsx, sheet "AMP details" | column: Pore formation

[4] = system: E. coli BW25113 overexpression strains (ASKA plasmids); assay: Minimum inhibitory concentration (MIC), serial broth dilution, single-gene overexpression strains vs empty-vector control; format: cell-based, Escherichia coli; conditions: for Relative MIC: broth dilution, MS medium, 100 µM IPTG, 30 °C, 20-24 h, OD600, 3 replicates; for Average relative change in MIC: mlaD overexpression strain relative to control (wild-type+empty vector), 3 replicates each, from optical density values of serial dilution plates, AMP in µg ml-1
Procedure, shortened: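 E. coli overexpression strains grown in MS medium with chloramphenicol, induced with 100 µM IPTG for 1 h at 30 °C, then about half-million cells inoculated into 12-step AMP dilutions (typically 1.2-fold steps). OD600 read after 20–24 h at 30 °C with shaking; triplicate strains compared with empty-vector control.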

[5] = gene ptrB, whether the literature phenotype was captured by the overexpression screen (9 out of 13 captured)
[6] = gene ptrB overexpressed, ref 2 (Mattiuzzo et al. 2014)
[7] = overexpression strain cvpA, MIC of overexpression strain / MIC of empty-plasmid control
[8] = overexpression strain gadW, MIC of overexpression strain / MIC of empty-plasmid control
[9] = overexpression strain mhpA, MIC of overexpression strain / MIC of empty-plasmid control
[10] = overexpression strain mzrA, MIC of overexpression strain / MIC of empty-plasmid control
[11] = overexpression strain nikB, MIC of overexpression strain / MIC of empty-plasmid control
[12] = overexpression strain uhpC, MIC of overexpression strain / MIC of empty-plasmid control
[13] = overexpression strain lptB, MIC of overexpression strain / MIC of empty-plasmid control
[14] = overexpression strain mlaC, MIC of overexpression strain / MIC of empty-plasmid control
[15] = overexpression strain mlaD, MIC of the overexpression strain / MIC of the control strain (wild-type carrying the empty plasmid)
[16] = overexpression strain hyfA, MIC of overexpression strain / MIC of empty-plasmid control
[17] = overexpression strain murA, MIC of overexpression strain / MIC of empty-plasmid control
[18] = overexpression strain rpoH, MIC of overexpression strain / MIC of empty-plasmid control
[19] = overexpression strain yiaJ, MIC of overexpression strain / MIC of empty-plasmid control

Sequence | Overexpression phenotype, Chemical-genetic profile [1, 5] | Overexpression phenotype, Literature [2, 6] | Pore formation (whether AMP makes pores in the bacterial membrane) [3] | Relative MIC [4, 7] | Relative MIC [4, 8] | Relative MIC [4, 9] | Relative MIC [4, 10] | Relative MIC [4, 11] | Relative MIC [4, 12] | Relative MIC [4, 13] | Average relative change in MIC [4] | Relative MIC [4, 14] | Relative MIC [4, 15] | Relative MIC [4, 16] | Relative MIC [4, 17] | Relative MIC [4, 18] | Relative MIC [4, 19] | further results
RRRPRPPYLPRPRPPPFFPPRLPPRIPPGFPPRFPPRFP [PR39, PR-39, cathelicidin, source pig; cluster C4] | Confirmed | Resistance^2 | No9 | 0.8 | 1.32 | 0.78 | 0.8 | 0.8 | 1.25 | – | – | – | – | – | – | – | – | Effect of folA overexpression on susceptibility ([1]; gene folA (dihydrofolate reductase) overexpressed): resistance; Overexpression phenotype, Chemical-genetic profile ([1]; gene sbmA, whether the literature phenotype was captured by the overexpression screen): Confirmed; Overexpression phenotype, Literature ([2]; gene sbmA overexpressed, ref 9 (Pranting et al. 2008)): Sensitivity^9
KTKKKFLKKT [PXB, Polymyxin B, from Bacillus polymyxa, purchased from Sigma-Aldrich; disrupts cell membrane; cluster C1] | – | – | Yes2 | – | 0.7 | – | 0.66 | 1 | – | 0.7 | – | – | – | – | – | – | – | Overexpression phenotype, Chemical-genetic profile ([1]; gene eptA, whether the literature phenotype was captured by the overexpression screen): Confirmed; Overexpression phenotype, Chemical-genetic profile ([1]; gene marA, whether the literature phenotype was captured by the overexpression screen): Confirmed; Overexpression phenotype, Literature ([2]; gene arnT overexpressed, ref 5 (Trent et al. 2001)): Resistance^5; Overexpression phenotype, Literature ([2]; gene eptA overexpressed, ref 7 (Olaitan et al. 2014)): Resistance^7; Overexpression phenotype, Literature ([2]; gene marA overexpressed, ref 3 (Warner & Levy 2010)): Resistance^3; Overexpression phenotype, Literature ([2]; gene pmrD overexpressed, ref 8 (Roland et al. 1994)): Resistance^8
RWCFRVCYRGICYRKCR [TPII, Tachyplesin II, antimicrobial peptide from Japanese horseshoe crab; disrupts cell membrane; cluster C1] | – | – | Yes1 | – | 1 | – | 1.27 | 0.8 | – | – | 1.47 | 1 | 1.47 | – | – | – | – | –
GIGKFLKKAKKFGKAFVKILKK [PEX, Pexiganan, synthetic Magainin derivative; disrupts cell membrane; cluster C2] | – | – | Yes13 | – | 0.7 | – | 1 | – | – | 1.3 | 1.71 | 1.85 | 1.85 | 0.7 | 1.44 | 1.44 | – | Relative MIC ([4]; overexpression strain narY, MIC of overexpression strain / MIC of empty-plasmid control): 0.8
ILPWKWPWWPWRR [IND, Indolicidin, antimicrobial peptide from bovine neutrophils; cluster C3] | – | – | Yes39 | 0.76 | – | – | 0.62 | 0.76 | 0.8 | – | 0.82 | – | 0.78 | >1.2 | 0.8 | 0.64 | 0.8 | Relative MIC ([4]; overexpression strain ptsN, MIC of overexpression strain / MIC of empty-plasmid control): 0.76; Relative MIC ([4]; overexpression strain ytjB, MIC of overexpression strain / MIC of empty-plasmid control): 0.8
RFRPPIRRPPIRPPFYPPFRPPIRPPIFPPIRPPFRPPLGPFP [BAC5, Bactenecin 5, antimicrobial peptide from bovine neutrophils; cluster C4] | Confirmed | Resistance^2 | – | – | 1.3 | 0.79 | – | – | – | 0.67 | 0.74 | 1 | 0.74 | – | 0.8 | 0.8 | 0.7 | Chemical-genetic score ([1]; overexpressed gene mlaD, read numbers in presence vs absence of AMP, sub-inhibitory dose doubling the doubling time, 12 generations, average of biological replicates): -2.101 log2 fold change; Relative MIC ([4]; overexpression strain yhbJ, MIC of overexpression strain / MIC of empty-plasmid control): 0.8
